# Laboratory results reported in patent US9452226B2, “Rodent model of central neuropathic pain caused by dorsal root entry zone avulsion at T13” (priority 2008, dated 2016).
# Entries after “also recorded” stand apart in the source; their conditions may differ.
# Experiments:
# [1] = system: rats with unilateral T13/L1 dorsal root avulsion; test: von Frey test after unilateral T13/L1 dorsal root avulsion, daily s.c. AV411 (Example 5); type: in vivo, rat
# Description: The dorsal spinal cord was exposed by laminectomy at the T13/L1 spinal level. The T13 and L1 dorsal roots were each isolated, clamped at the dorsal root entry zone (DREZ) and briskly pulled out of the spinal cord as described above. AV411 was administered to animals avulsed at the T13 and L1 dorsal root entry zones. The compound AV411 was administered to animals subject to the T13 and L1 hind paws. […] The reversal begins after 5-6 injections and continues to reverse behavior until day 33. The contralateral paw began to resolve at day 28 and the ipsilateral paw was still sensitive at day 33. […] Response thresholds on the von Frey test were recorded prior to and across a timecourse after avulsion surgery. Beginning on Day 12 post-surgery, rats (n=4/group) received once daily s.c. injections of either the glial activation inhibitor AV411/Ibudilast (Sigma; 5-mg/kg or 10-mg/kg) or equivolume vehicle (corn oil; 0.5-ml/kg). Daily drug treatment and intermittent behavioral testing continued through 33 days after surgery.
# [2] = system: rats having DREZs avulsed at T13/L1; test: von Frey allodynia test in T13/L1 DREZ avulsion rat model, intrathecal ibudilast (Example 2); type: in vivo; settings: intrathecally daily in corn oil carrier; unilateral (FIG. 2) or bilateral (FIG. 3) DREZ avulsion; vs sham controls receiving corn oil
# Description: Rats were anesthetized using isoflurane. Under aseptic condition, the skin was incised in the midline along the posterior thoracolumbar region. The paravertebral muscles were retracted laterally to expose the posterior aspect of the spinal laminae. Laminectomies were performed and the dura mater then incised along the midline to expose the dorsal rootlets 10 of T13 and L1. The dorsal rootlets of T13 and L1 were then avulsed out of the spinal cord 15 on the left side using micronstrumentation 5 (see FIG. 4B). A visual defect 25 in pia and dorsal cord where the rootlets 10 were avulsed can be seen in FIG. 4B. The grey matter 30 of the spinal cord 15 is also shown. Hemostasis was obtained and a layer of gelfoam placed over the dura. The wound was closed in layers. Perioperative antibiotics were administered in prophylaxis against infection. Subject rats were tested for allodynia of the hindpaws with the von Frey hair test, beginning day one post surgery and continuing daily over the subsequent four weeks. Rat animal model was generated similar to above. In one experiment, DREZ avulsion was unilateral (FIG. 2). In one experiment, DREZ avulsion was bilateral (FIG. 3). Ibudilast was delivered intrathecally daily in a corn oil carrier, with sham controls receiving only the corn oil.
smiles,measurement,setting,value
"CC(C)C(=O)c1c(C(C)C)nn2ccccc12 [AV411, 2-methyl-1-(2-propan-2-ylpyrazolo[1,5-a]pyridin-3-yl)propan-1-one]",difference between the 5 mg and 10 mg dose,"[1]; allodynia reversal, daily s.c.",not differences
same,reversal of behavior continues until,"[1]; days after surgery, daily s.c. treatment through day 33",33 days
same,effect on allodynia induced by avulsion (von Frey response thresholds),"[1]; once daily s.c. 5-mg/kg or 10-mg/kg from Day 12 post-surgery through day 33, vs corn oil vehicle",reversed allodynia; also recorded: reverses bilateral allodynia
same,effect of administering AV411 on hind paw mechanical allodynia as printed,"[1]; unilateral T13/L1 dorsal root avulsion, lasting upwards of 1.5 months",induces bilateral mechanical allodynia
same,effect on allodynia in the model,[2],decreases allodynia
